The results in this text go back to US20260263529A1, “BIOENGINEERED COLON-SPECIFIC IMUNE NICHE FOR THE TREATMENT OF ULCERATIVE COLITIS” (THE BOARD OF REGENTS OF THE UNIVERSITY OF TEXAS SYSTEM, priority 2023, published 2026).

Series [1] is described as follows: Aqueous electrophoresis (zeta potential). It is filed as physicochemical. As to conditions: dispersed in 1X PBS, diluted 100 times with deionized water, pH 6.8-8.0, 25° C. As for the experimental part: Sphere-equivalent intensity-average diameters (Dh) and zeta potentials of all NF samples were measured in a Malvern Zetasizer Pro instrument.
Series [2] deals with B16OVA tumor-bearing mice. Briefly: Copanlisib-triggered colitis in B16OVA tumor model. Type of series: in vivo, C57BL/6 mice. The note with it: copanlisib 25 mg/kg i.p. As for the experimental part: B16F10, B16OVA, and MC38 xenograft tumors were inoculated into healthy C57BL/6 mice (female, 7 to 8 weeks old) through s.c. inoculation of B16F10 cells (2.5×10^5 cells/mouse) in serum-free DMEM, B16OVA cells (2.5×10^5 cells/mouse) in serum-free RPMI 1640 culture medium, and MC38 cells (5×10^5 cells/mouse) in serum-free DMEM in the right flank. Tumor volume (volume=0.5×a×b^2, where a is the large diameter and b is the small diameter) was measured every 2 to 3 days from day 7 after the tumor was inoculated.
For the COP-triggered colitis study in the B16OVA tumor model, COP treatment was provided by i.p. administration of COP (25 mg/kg, in saline) at days 6, 8, 10, 12, 14, 16 and 18 after tumor inoculation. Colitis was induced by feeding the tumor-bearing mice 3% DSS at day 14 for 4 days. For the colitis treatment group, mice received a single s.c. treatment with COMBO COIN at day 18. Bodyweight and DAI scores were monitored every 2 or 3 days. Mice were euthanized at 22 days post-inoculation. Colons were preserved by trained veterinary technicians at the UTSW ARC Diagnostic Laboratory without prior knowledge of the treatment. The lengths of preserved colons were measured and fixed with 10% NBF for 24 h. Fixed specimens were kept in 70% ethanol and transferred to the UTSW Histo Pathology Core for histological study (H&E, Ki67 and TUNEL stains).

Consider ACESPLKRQCGGG [TGF-β1 mimetic peptide], for which the Average zeta potential result in series [1] was “+22.1 ± 3.1 mV”. On to `COc1c(OCCCN2CCOCC2)ccc2c1N=C(NC(=O)c1cnc(N)nc1)N1CCN=C21` [Copanlisib, copanlisib], for which, in series [2], the B16OVA tumor growth result was “effectively inhibited B16OVA tumor growth” and the “colitis symptoms induced by cancer treatment” value was “induced mild colitis symptoms”.
